We go through seven compounds from ChEMBL document CHEMBL5331063, “Recent advances of β-catenin small molecule inhibitors for cancer therapy: Current development and future perspectives” (Eur J Med Chem, 2022).

In experiment [1] the target is T1, TCF4-CTNNB1 complex (Homo sapiens, UniProt P35222+Q9NQB0).
T1 sequence (P35222 whole entry): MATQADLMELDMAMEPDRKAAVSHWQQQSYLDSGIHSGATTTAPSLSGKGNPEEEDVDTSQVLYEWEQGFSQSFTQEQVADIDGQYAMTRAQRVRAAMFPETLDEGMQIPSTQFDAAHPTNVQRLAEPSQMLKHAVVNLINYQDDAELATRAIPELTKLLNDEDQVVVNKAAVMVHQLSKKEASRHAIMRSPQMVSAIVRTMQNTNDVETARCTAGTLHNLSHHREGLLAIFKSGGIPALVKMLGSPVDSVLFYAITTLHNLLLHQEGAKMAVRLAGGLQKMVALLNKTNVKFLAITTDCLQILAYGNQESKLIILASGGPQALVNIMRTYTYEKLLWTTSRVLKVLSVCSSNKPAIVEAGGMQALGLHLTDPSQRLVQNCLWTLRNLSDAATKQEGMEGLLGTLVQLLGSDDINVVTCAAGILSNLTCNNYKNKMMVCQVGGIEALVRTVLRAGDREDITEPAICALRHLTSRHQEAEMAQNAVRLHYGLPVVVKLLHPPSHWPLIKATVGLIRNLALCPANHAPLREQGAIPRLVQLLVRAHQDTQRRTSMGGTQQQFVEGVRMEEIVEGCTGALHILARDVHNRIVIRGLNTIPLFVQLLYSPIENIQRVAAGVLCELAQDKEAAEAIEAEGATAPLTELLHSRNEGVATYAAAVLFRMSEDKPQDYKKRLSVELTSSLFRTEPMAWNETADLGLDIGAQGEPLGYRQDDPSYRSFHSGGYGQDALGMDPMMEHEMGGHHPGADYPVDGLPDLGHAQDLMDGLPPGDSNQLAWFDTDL
T1 sequence (P15884 whole entry): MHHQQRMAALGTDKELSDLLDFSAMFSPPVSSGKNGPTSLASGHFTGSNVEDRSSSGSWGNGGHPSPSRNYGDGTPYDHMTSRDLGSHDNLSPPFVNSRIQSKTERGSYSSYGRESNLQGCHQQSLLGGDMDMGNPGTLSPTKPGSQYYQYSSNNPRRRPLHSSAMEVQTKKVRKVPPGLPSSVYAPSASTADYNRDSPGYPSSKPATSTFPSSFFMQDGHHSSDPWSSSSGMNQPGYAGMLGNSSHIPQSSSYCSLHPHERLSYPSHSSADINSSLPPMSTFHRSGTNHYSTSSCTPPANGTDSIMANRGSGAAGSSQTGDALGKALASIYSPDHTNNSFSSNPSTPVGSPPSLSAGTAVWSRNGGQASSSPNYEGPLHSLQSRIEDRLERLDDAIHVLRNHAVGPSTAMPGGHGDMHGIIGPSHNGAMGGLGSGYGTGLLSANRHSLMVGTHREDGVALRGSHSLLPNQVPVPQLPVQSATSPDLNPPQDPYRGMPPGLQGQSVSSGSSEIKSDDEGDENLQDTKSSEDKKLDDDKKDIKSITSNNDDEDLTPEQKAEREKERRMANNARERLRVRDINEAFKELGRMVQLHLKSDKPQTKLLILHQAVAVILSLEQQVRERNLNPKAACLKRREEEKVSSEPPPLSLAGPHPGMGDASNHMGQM
Put plainly: Inhibition of human beta-Catenin/GST-tagged TCF4 (unknown origin) protein-protein interaction incubated for 2 hrs by ELISA assay. The format is protein-complex assay. (In general: In an ELISA, binding on a coated surface is turned into a signal by an enzyme label.)

Experiment [2] addresses T1, TCF4-CTNNB1 complex. Kind of experiment: Inhibition of beta-Catenin/GST-tagged TCF4 protein-protein interaction in human HCT-116 cells incubated for 24 hrs by immunoprecipitation assay. The format is cell-based.
The subject of experiment [3] is SW480. Put plainly: Antiproliferative activity against human SW480 cells assessed as inhibition of cell growth by MTS assay. The format is functional, cell-based.
A short description of experiment [4]: Inhibition of human beta-Catenin (138 to 686 residues)/C-terminal fluorescein-labeled human APC (1477 to 1519 residues) protein-protein interaction assessed as inhibition constant incubated for 30 mins by fluorescence polarization assay. (Polarisation of emitted light reports the rotation of a fluorescent probe.)
The target in experiment [5] is T2, Catenin beta-1/Cadherin-1 (Homo sapiens, UniProt P35222).
T2 sequence (P35222 whole entry): T1 sequence (P35222 whole entry)
T2 sequence (P12830 whole entry): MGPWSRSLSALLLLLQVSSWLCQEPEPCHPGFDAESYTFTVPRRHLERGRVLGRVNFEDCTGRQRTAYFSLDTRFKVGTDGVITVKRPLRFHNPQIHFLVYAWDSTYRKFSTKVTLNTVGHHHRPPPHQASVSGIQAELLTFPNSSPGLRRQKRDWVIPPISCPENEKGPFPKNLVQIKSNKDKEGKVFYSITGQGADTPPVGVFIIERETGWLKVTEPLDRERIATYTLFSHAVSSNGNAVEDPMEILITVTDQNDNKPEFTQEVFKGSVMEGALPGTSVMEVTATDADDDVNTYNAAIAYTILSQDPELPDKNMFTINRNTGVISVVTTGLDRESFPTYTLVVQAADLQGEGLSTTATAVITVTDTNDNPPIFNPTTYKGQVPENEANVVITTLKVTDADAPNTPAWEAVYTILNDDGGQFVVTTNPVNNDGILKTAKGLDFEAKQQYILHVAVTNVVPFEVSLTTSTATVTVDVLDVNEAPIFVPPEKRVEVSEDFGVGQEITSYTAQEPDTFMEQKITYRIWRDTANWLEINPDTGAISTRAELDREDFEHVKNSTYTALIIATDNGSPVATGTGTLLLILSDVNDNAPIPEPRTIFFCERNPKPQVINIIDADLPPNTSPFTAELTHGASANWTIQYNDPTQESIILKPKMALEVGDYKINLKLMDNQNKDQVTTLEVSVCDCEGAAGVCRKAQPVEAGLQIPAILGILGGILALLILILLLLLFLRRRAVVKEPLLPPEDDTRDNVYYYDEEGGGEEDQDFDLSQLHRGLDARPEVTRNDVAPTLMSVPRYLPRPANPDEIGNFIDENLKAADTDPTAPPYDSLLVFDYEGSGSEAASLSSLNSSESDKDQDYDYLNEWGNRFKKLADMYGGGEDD
Put plainly: Inhibition of His6-tagged human beta-Catenin (138 to 686 residues)/C-terminal fluorescein-labeled human E-cadherin (819 to 873 residues) protein-protein interaction assessed as inhibition constant by AlphaScreen competitive assay.

The target of experiment [6] is T3, TCF4-CTNNB1 complex (Homo sapiens, UniProt P15884+P35222).
T3 sequence (P35222 whole entry): T1 sequence (P35222 whole entry)
T3 sequence (P15884 whole entry): T1 sequence (P15884 whole entry)
Kind of experiment: Inhibition of beta-Catenin (301 to 670 residues)/TCF4 protein-protein interaction in human HCT-116 cells incubated for 20 hrs by TOPFLASH luciferase reporter assay. The format is cell-based. (In general: A reporter such as luciferase makes a cellular process visible.)

Experiment [7] is described as follows: Inhibition of Wnt1 signalling in human SW480 cells expressing ST-Luc incubated for 24 hrs by luciferase reporter assay. The conditions noted are these: SW480, 24 h. Format: cell-based.
Experiment [8] concerns the target T1, TCF4-CTNNB1 complex. Put plainly: Inhibition of beta-Catenin/TCF4 (unknown origin) protein-protein interaction. Format: protein-complex assay.

By IC50 is commonly meant the concentration needed to halve the response being measured. Regarding `COC(=O)c1c(C)cc2c(c1O)[C@]1(O)C(=O)c3cc4c(c(O)c3C(=O)[C@]1(OC)[C@H](O)C2)C(=O)C=C(N[C@@H]1O[C@H](C)[C@@H](OC)[C@H](O)[C@@H]1OC)C4=O`, inhibition in experiment [1] was half-maximal at 0.64 µM (IC50).

Compound `COc1c(CC(C)OC(=O)Oc2ccc(O)cc2)c2c3c(CC(C)OC(=O)c4ccccc4)c(OC)c(=O)c4c(O)cc(OC)c(c5c(OC)cc(O)c(c1=O)c52)c43` (stereo not drawn) showed an IC50 in experiment [2] of 10 µM.

As a reminder, the Ki is a measure of affinity in units of concentration, obtained from inhibition or displacement. Take `COC(=O)[C@H](CCC(=O)O)NC(=O)[C@H](CC(=O)O)NC(=O)[C@H](Cc1ccc2ccccc2c1)NC(=O)Cc1cc2cc(Cl)ccc2[nH]1`: the concentration for half-maximal inhibition (IC50) in experiment [3] was 232 µM. Also, in experiment [4], the Ki is 86.6 µM. With `O=C(Nc1ccc(O[C@H]2CCNC2)c(-c2ccc(F)cc2)c1)c1ccc(O[C@H]2CCNC2)c(-c2ccc(F)c(F)c2)c1`, the Ki in experiment [5] was 260 µM. `COC(=O)c1cccc(NS(=O)(=O)c2ccc(C)cc2)c1`: half-maximal inhibition in experiment [6] (IC50) was put at 0.583 µM. In experiment [7], `C=C1C(=O)[C@@]23[C@H](O)C[C@@H]4C(C)(C)CC[C@H](O)[C@@]4(COC(C)=O)[C@@H]2CC[C@H]1[C@H]3O` showed an IC50 of 0.6 µM.

In turn, `C[C@H]1[C@H]2N(C(=O)CN(C)N2C(=O)NCc2ccccc2)[C@@H](Cc2ccc(OP(=O)(O)O)cc2)C(=O)N1Cc1cccc2cccnc12` showed an IC50 in experiment [8] of 0.15 µM.
